Values after ≈ are worked out from the molar mass of the structure shown. Active and inactive are the calls of the source. The rule behind the calls is not given here.
Tests used:
[1] = tested on: Staphylococcus aureus; assay: Antibacterial activity against vancomycin-sensitive Staphylococcus aureus T144 infected in Balb/c mouse assessed as reduction in bacterial burden at 5 mg/kg applied topically measured after 12 days by colony counting method; assay type: functional, organism-based; conditions: time 12.0 day
[2] = Solubility of compound in pH 7.7 PBS buffer; assay type: physicochemical
[3] = tested on: Enterococcus faecalis; assay: Antibacterial activity against Enterococcus faecalis ATCC 29212 at 0.78 to 100 uM after 24 hrs by broth microdilution method; assay type: functional, organism-based; conditions: dose microM 0.78-100, time 24.0 hrs
[4] = biological target: Pyruvate kinase PKM (Oryctolagus cuniculus) (UniProt P11974); assay: Inhibition of rabbit muscle pyruvate kinase up to 12.5 uM using phosphoenolpyruvate as substrate measured for 5 mins by LDH-coupled assay; conditions: dose microM <=12.5, time 5.0 min
[5] = tested on: Enterococcus faecium; assay: Antibacterial activity against vancomycin-resistant Enterococcus faecium ATCC 35667 at 0.78 to 100 uM after 24 hrs by broth microdilution method; assay type: functional, organism-based; conditions: dose microM 0.78-100, time 24.0 hrs
[6] = tested on: Acinetobacter baumannii; assay: Antibacterial activity against Acinetobacter baumannii ATCC BAA-1605 after 24 hrs by broth microdilution method; assay type: functional
[7] = tested on: Klebsiella pneumoniae; assay: Synergistic antibacterial activity against Klebsiella pneumoniae ATCC 700603 assessed as FICI after 24 hrs in presence of colistin by checkerboard assay; assay type: functional
[8] = tested on: Cell membrane; assay: Induction of cell membrane permeabilization in GFP-expressing Staphylococcus aureus ATCC 700699 assessed as increase in GFP efflux at 5 fold MIC measured after 6 hrs by fluorescence assay
[9] = tested on: Staphylococcus aureus; assay: Antibacterial activity against […] Staphylococcus aureus ATCC 700699 after 24 hrs by broth microdilution method; assay type: functional
[10] = tested on: Escherichia coli; assay: Antimicrobial activity against Escherichia coli ATCC BAA 2469 after 24 hrs by broth microdilution assay; assay type: functional
[11] = tested on: Enterococcus faecalis; assay: Antibacterial activity against Enterococcus faecalis ATCC 51299 at 0.78 to 100 uM after 24 hrs by broth microdilution method; assay type: functional, organism-based; conditions: dose microM 0.78-100, time 24.0 hrs
[12] = tested on: THP-1; assay: Cytotoxicity against human THP-1 cells assessed as reduction in cell viability at >=12.5 uM measured after 48 hrs by resazurin dye based fluorescence assay; conditions: thp-1, 48 h
[13] = tested on: Acinetobacter baumannii; assay: Synergistic antibacterial activity against Acinetobacter baumannii ATCC BAA-1605 assessed as FIC after 24 hrs in presence of colistin by checkerboard assay relative to test compound MIC; assay type: functional
[14] = tested on: Cell membrane; assay: Induction of cell membrane permeabilization in GFP-expressing Staphylococcus aureus ATCC 700699 assessed as increase in cellular ATP leakage at 5 fold MIC measured after 0.5 hrs by Bactiter-glo assay; assay type: subcellular
[15] = tested on: Enterococcus faecium; assay: Antibacterial activity against vancomycin-resistant Enterococcus faecium ATCC 700221 at 0.78 to 100 uM after 24 hrs by broth microdilution method; assay type: functional, organism-based; conditions: dose microM 0.78-100, time 24.0 hrs
[16] = tested on: Cell membrane; assay: Induction of cell membrane permeabilization in methicillin resistant Staphylococcus aureus ATCC 700699 at 5 fold MIC measured at 5 mins interval for 2 hrs by propidium iodide staining based fluorescence assay
[17] = tested on: Staphylococcus aureus; assay: Antibacterial activity against methicillin-resistant pyruvate kinase deficient Staphylococcus aureus USA300 LAC at 0.15 to 25 uM incubated for 24 hrs under low pyruvate containing medium by resazurin dye based fluorescence assay; assay type: functional, organism-based; conditions: dose microM 0.15-25, time 24.0 hrs
[18] = tested on: Staphylococcus aureus; assay: Antibacterial activity against vancomycin-sensitive Staphylococcus aureus T144 infected in Balb/c mouse peritonitis-sepsis model assessed as increase in survival at 5 mg/kg, ip measured for 48 hrs; assay type: functional, organism-based
[19] = tested on: Staphylococcus aureus; assay: Antibacterial activity against methicillin-resistant Staphylococcus aureus USA300 LAC at 0.15 to 25 uM incubated for 24 hrs under low glucose medium by resazurin dye based fluorescence assay; assay type: functional, organism-based; conditions: dose microM 0.15-25, time 24.0 hrs
[20] = tested on: Erythrocyte; assay: Hemolytic activity against sheep erythrocytes up to 100 uM measured after 1 hr; assay type: ADME, cell-based, Ovis aries
[21] = tested on: Pseudomonas aeruginosa; assay: Synergistic antibacterial activity against Pseudomonas aeruginosa ATCC 27853 assessed as FICI after 24 hrs in presence of colistin by checkerboard assay; assay type: functional
[22] = tested on: Staphylococcus aureus; assay: Bactericidal activity against […] Staphylococcus aureus ATCC 700699 assessed as reduction in bacterial viability at 5 fold MIC incubated for 6 hrs by time kill assay relative to control; assay type: functional
[23] = Selectivity index, ratio of IC50 for cytotoxicity against human MRC5 cells to MIC90 for antibacterial activity against […] Staphylococcus aureus ATCC 700699; assay type: toxicity, cell-based; conditions: read-out: Selectivity Index
[24] = tested on: Cell membrane; assay: Induction of cell membrane permeabilization in methicillin sensitive Staphylococcus aureus ATCC 29213 at 5 fold MIC measured after 30 mins by propidium iodide/DAPI staining based fluorescence microscopic analysis; assay type: subcellular
[25] = tested on: Escherichia coli; assay: Synergistic antimicrobial activity against Escherichia coli ATCC BAA 2469 assessed as FIC after 24 hrs in presence of colistin by checkerboard assay relative to test compound MIC; assay type: functional
[26] = tested on: Staphylococcus aureus; assay: Bactericidal activity against […] Staphylococcus aureus ATCC 700699 assessed as colony forming units at 5 fold MIC measured after 24 hrs by time kill assay; assay type: functional
[27] = Solubility of compound in pH 7.7 DMSO:PBS solution; assay type: physicochemical; conditions: buffer
[28] = tested on: Staphylococcus aureus; assay: Antibacterial activity against methicillin susceptible Staphylococcus aureus ATCC 25923 at 0.78 to 100 uM after 24 hrs by broth microdilution method; assay type: functional, organism-based; conditions: dose microM 0.78-100, time 24.0 hrs
[29] = tested on: Acinetobacter baumannii; assay: Synergistic antibacterial activity against Acinetobacter baumannii ATCC BAA-1605 assessed as FICI after 24 hrs in presence of colistin by checkerboard assay; assay type: functional
[30] = tested on: HepG2; assay: Cytotoxicity against human HepG2 cells assessed as reduction in cell viability at >12.5 uM measured after 48 hrs by resazurin dye based fluorescence assay; conditions: hepg2, 48 h
[31] = tested on: Staphylococcus aureus; assay: Antibacterial activity against methicillin-resistant Staphylococcus aureus USA300 LAC at 0.15 to 25 uM incubated for 24 hrs under low pyruvate containing medium by resazurin dye based fluorescence assay; assay type: functional, organism-based; conditions: dose microM 0.15-25, time 24.0 hrs
[32] = tested on: Escherichia coli; assay: Synergistic antimicrobial activity against Escherichia coli ATCC BAA 2469 assessed as FICI after 24 hrs in presence of colistin by checkerboard assay; assay type: functional
[33] = tested on: Staphylococcus aureus; assay: Inhibition of Staphylococcus aureus ATCC 700699 N-terminal His6-tagged pyruvate kinase expressed in Escherichia coli NiCo21(DE3) at 12.5 uM using phosphoenolpyruvate as substrate measured for 5 mins by LDH-coupled assay
[34] = tested on: Acinetobacter baumannii; assay: Synergistic antibacterial activity against Acinetobacter baumannii ATCC BAA-1605 assessed as FIC after 24 hrs in presence of colistin by checkerboard assay relative to colistin; assay type: functional
[35] = tested on: Klebsiella pneumoniae; assay: Synergistic antibacterial activity against Klebsiella pneumoniae ATCC 700603 assessed as FIC after 24 hrs in presence of colistin by checkerboard assay relative to test compound MIC; assay type: functional
[36] = tested on: MRC5; assay: Cytotoxicity against human MRC5 cells assessed as reduction in cell viability at >=12.5 uM measured after 48 hrs by resazurin dye based fluorescence assay; conditions: mrc5, 48 h
[37] = tested on: Staphylococcus aureus; assay: Antibacterial activity against vancomycin-sensitive Staphylococcus aureus T144 infected in Balb/c mouse assessed as increase in wound healing at 5 mg/kg applied topically measured daily for 12 days by microscopic analysis; assay type: functional, organism-based; conditions: time 12.0 day
[38] = tested on: Pseudomonas aeruginosa; assay: Synergistic antibacterial activity against Pseudomonas aeruginosa ATCC 27853 assessed as FIC after 24 hrs in presence of colistin by checkerboard assay relative to colistin; assay type: functional

Sequence of Pyruvate kinase PKM (Oryctolagus cuniculus) (P11974 whole entry): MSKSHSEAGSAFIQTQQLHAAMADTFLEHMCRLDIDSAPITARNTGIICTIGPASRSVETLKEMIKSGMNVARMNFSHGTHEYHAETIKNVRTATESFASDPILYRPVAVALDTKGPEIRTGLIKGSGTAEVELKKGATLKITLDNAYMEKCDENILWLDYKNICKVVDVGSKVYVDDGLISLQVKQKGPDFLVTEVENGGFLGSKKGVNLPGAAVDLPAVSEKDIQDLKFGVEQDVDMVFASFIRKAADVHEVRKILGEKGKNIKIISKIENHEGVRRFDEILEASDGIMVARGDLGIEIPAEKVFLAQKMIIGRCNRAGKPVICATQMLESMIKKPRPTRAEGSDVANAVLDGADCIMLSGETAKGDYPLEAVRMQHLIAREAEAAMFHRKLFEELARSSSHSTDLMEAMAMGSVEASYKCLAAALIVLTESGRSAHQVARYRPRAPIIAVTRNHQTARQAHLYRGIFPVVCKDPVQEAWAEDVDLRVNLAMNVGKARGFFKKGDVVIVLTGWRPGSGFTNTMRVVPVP

## Clc1ccc2[nH]cc(-c3cccc(-c4c[nH]c5ccc(Cl)cc45)n3)c2c1
[1]
  Activity: Active
[2]
  solubility: Insoluble
[3]
  Activity: Active
[4]
  inhibition: inactive
[5]
  Activity: Active
[6]
  MIC: > 100 µM
[7]
  fractional inhibitory concentration index (FICI): <=0.25
[8]
  Activity: Active
[9]
  MIC90: 0.2 µM (≈ 0.0757 µg/mL)
[10]
  MIC: > 100 µM
[11]
  Activity: Active
[12]
  Activity: Toxic
[13]
  FIC: <=0.0625
[14]
  Activity: Active
[15]
  Activity: Active
[16]
  Activity: Active
[17]
  Activity: Active
[18]
  Activity: Active
[19]
  Activity: Active
[20]
  Activity: Non-Toxic
[21]
  fractional inhibitory concentration index (FICI): <=0.5625
[22]
  fold change (FC): 10000
[23]
  selectivity ratio: 32
[24]
  Activity: Active
[25]
  FIC: <=0.0313
[26]
  Activity: <10 CFU/ml
[27]
  solubility: Insoluble
[28]
  Activity: Active
[29]
  fractional inhibitory concentration index (FICI): <=0.3125
[30]
  Activity: Toxic
[31]
  Activity: Active
[32]
  fractional inhibitory concentration index (FICI): <=0.0953
[33]
  inhibition: inactive
[34]
  FIC: 0.25
[35]
  FIC: <=0.125
[36]
  Activity: Toxic
[37]
  Activity: Active
[38]
  FIC: 0.5
